The structures appear in SMILES notation. Where “and” joins values, the source holds several entries; their conditions need not be identical. Identical values can stand only once. Counter-ions that a name gives are not always drawn. Bounds are passed on as bounds.

Usually melting point stands for the temperature, or range, at which the solid turns liquid. For orientation: Ki means the equilibrium dissociation constant of an inhibitor or competing ligand from its target.

T1 sequence (P34969 1-432): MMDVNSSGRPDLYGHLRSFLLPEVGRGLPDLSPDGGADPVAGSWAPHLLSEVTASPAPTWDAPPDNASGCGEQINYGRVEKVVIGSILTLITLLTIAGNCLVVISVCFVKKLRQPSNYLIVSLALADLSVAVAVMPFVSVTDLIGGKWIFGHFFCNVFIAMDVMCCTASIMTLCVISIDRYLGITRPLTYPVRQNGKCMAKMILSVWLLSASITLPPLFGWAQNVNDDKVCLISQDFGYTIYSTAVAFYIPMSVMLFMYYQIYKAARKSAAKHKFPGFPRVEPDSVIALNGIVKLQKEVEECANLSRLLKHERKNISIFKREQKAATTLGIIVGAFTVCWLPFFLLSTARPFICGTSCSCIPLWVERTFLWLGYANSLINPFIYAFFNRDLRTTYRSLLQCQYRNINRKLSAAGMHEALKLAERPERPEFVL

Tested on in one data set: not given
Assay: not given
Settings: not given
`c1cc(-c2ccoc2)nc(N2CCNCC2)n1` (as salt: hydrobromid) [Compound 1, 4-(3-Furyl)-2-(piperazin-1-yl)pyrimidine] came in with a melting point of 241 to 242 °C.

In turn, `CCCN1CCN(c2nccc(-c3ccoc3)n2)CC1` (as salt: hydrobromid) [Compound 4, 4-(3-Furyl)-2-(4-propylpiperazin-1-yl)pyrimidine] displayed a melting point of 274 to 277 °C.

For the compound `c1ccc(CN2CCN(c3nccc(-c4ccoc4)n3)CC2)cc1` (as salt: hydrobromid) [Compound 5, 2-(4-Benzylpiperazin-1-yl)-4-(3-furyl)pyrimidine], the melting point is > 280 °C.

In the case of `CCc1cc(-c2ccoc2)nc(N2CCN(C)CC2)n1` (as salt: hydrobromid) [Compound 12, 4-Ethyl-6-(3-furyl)-2-(4-methylpiperazin-1-yl)pyrimidine], the melting point lay within 287 to 288 °C.

Compound `CCCCc1cc(-c2ccoc2)nc(N2CCN(C)CC2)n1` (as salt: hydrobromid) [Compound 13, 4-(n-Butyl)-6-(3-furyl)-2-(4-methylpiperazin-1-yl)pyrimidine] gave a melting point of 179 to 180 °C.

The compound `CCCc1cnc(N2CCN(C)CC2)nc1-c1ccoc1` (as salt: hydrobromid) [Compound 21, 4-(3-Furyl)-2-(4-methylpiperazino)-5-propylpyrimidine] yielded a melting point of 206 to 208 °C.

Regarding `CCCCc1nc(N2CCN(C)CC2)nc(-c2ccoc2)c1CCC` (as salt: hydrobromid) [Compound 22, 4-n-Butyl-6-(3-furyl)-2-(4-methylpiperazino)-5-propylpyrimidine], the melting point is 203 °C (dec.).

The compound `Cc1occc1-c1ccnc(N2CCN(C)CC2)n1` (as salt: hydrobromid) [Compound 23, 4-(2-Methyl-3-furyl)-2-(4-methylpiperazin-1-yl)pyrimidine] gave a melting point of 263 to 265 °C.

With `Cc1cc(-c2ccnc(N3CCN(C)CC3)n2)co1` (as salt: hydrobromid) [Compound 24, 4-(5-Methyl-3-furyl)-2-(4-methylpiperazin-1-yl)pyrimidine], the melting point was 275 °C (dec.).

With `CCCCCCc1cc(-c2coc(C)c2)nc(N2CCN(C)CC2)n1` (as salt: hydrobromid) [Compound 25, 4-n-Hexyl-6-(5-methyl-3-furyl)-2-(4-methylpiperazin-1-yl)pyrimidine], the melting point is 242 °C (dec.).

Regarding `Cc1ccc(-c2ccnc(N3CCN(C)CC3)n2)o1` (as salt: hydrobromid) [Compound 29, 4-(5-Methyl-2-furyl)-2-(4-methylpiperazin-1-yl)pyrimidine], the melting point was in the range of 263 to 265 °C.

`CN1CCN(c2nccc(-c3cc4ccccc4o3)n2)CC1` (as salt: hydrobromid) [Compound 36, 4-(Benzofuran-2-yl)-2-(4-methylpiperazin-1-yl)pyrimidine]: the melting point is > 300 °C.

In turn, `CN1CCN(c2nccc(-c3cc4ccccc4s3)n2)CC1` (as salt: hydrobromid) [Compound 37, 4-(Benzothiophen-2-yl)-2-(4-methylpiperazin-1-yl)pyrimidine] showed a melting point of 299 to 300 °C.

Compound `CN1CCCN(c2nccc(-c3ccoc3)n2)CC1` (as salt: hydrobromid) [Compound 42, 4-(3-Furyl)-2-(4-methylhomopiperazin-1-yl)pyrimidine] displayed a melting point of 176 to 177 °C.

The compound `c1cc(-c2ccoc2)nc(N2CCCCC2)n1` (as salt: hydrobromid) [Compound 43, 4-(3-Furyl)-2-(piperidin-1-yl)pyrimidine] came in with a melting point of 190 to 191 °C.

Regarding `c1cc(-c2ccoc2)nc(NCCCc2ncc[nH]2)n1` (as salt: hydrobromid) [Compound 46, 4-(3-Furyl)-N-[3-(1H-imidazol-2-yl)propyl]pyrimidin-2-amine], the melting point was in the range of 234 to 236 °C.

Compound `Cc1cc(-c2cccs2)cc(N2CCN(C)CC2)n1` (as salt: hydrobromid) [Compound 56, 2-Methyl-6-(4-methylpiperazin-1-yl)-4-(2-thienyl)pyridine] displayed a melting point of 132 to 134 °C.

On to `CN1CCN(c2nc(-c3ccoc3)cc(C(F)(F)F)n2)CC1` (as salt: hydrochloride) [Compound 16, 4-(3-Furyl)-2-(4-methylpiperazin-1-yl)-6-(trifluoromethyl)pyrimidine], for which the melting point was > 300 °C.

A further data set has as its target T1, human 5-HT7b receptors (Homo sapiens, UniProt P34969).
T1 construct: expressed in transfected cells; host or cells: HEK293
Kind of data set: 5-HT7 competition radioligand binding assay ([3H]5-CT). The note with it: HEK293 cells overexpressing human 5-HT7b receptors, at least two independent experiments in triplicate. The method, then:
Novel scaffold endowed with 5-HT7R activity was identified by screening of the in-house compound library in a single compound concentration of 1 µM in a competition radioligand binding assay using [^3H]5-CT and HEK293 cells overexpressing the human 5-HT7b receptors.
As to `c1cc(-c2ccoc2)nc(N2CCCCC2)n1` [Compound 43, 4-(3-Furyl)-2-(piperidin-1-yl)pyrimidine], the “Ki ± S.D. 5-HT7 binding affinity” value was “no affinity”.

The same data set, now with this note: HEK293 cells overexpressing human 5-HT7b receptors, at least two independent experiments in triplicate, read-out: Ki ± S.D. 5-HT7 binding affinity.
Take `CN1CCN(c2nccc(-n3ccnc3)n2)CC1` [Compound 41, (1H-Imidazol-1-yl)-2-(4-methylpiperazin-1-yl)pyrimidine]: the inhibition constant Ki came to 1.98 ± 0.275 µM.

As to `CN1CCCN(c2nccc(-c3ccoc3)n2)CC1` [Compound 42, 4-(3-Furyl)-2-(4-methylhomopiperazin-1-yl)pyrimidine], the Ki is 0.148 ± 0.017 µM.

Consider `c1cc(-c2ccoc2)nc(N2CCCCC2)n1` [Compound 43, 4-(3-Furyl)-2-(piperidin-1-yl)pyrimidine], for which the Ki is > 10 µM.

Regarding `c1cc(-c2ccoc2)nc(NCCN2CCOCC2)n1` [Compound 45, 4-(3-Furyl)-N-[2-(morpholin-4-yl)ethyl]pyrimidin-2-amine], the Ki is 2.46 ± 0.343 µM.

Consider `c1cc(-c2ccoc2)nc(NCCCc2ncc[nH]2)n1` [Compound 46, 4-(3-Furyl)-N-[3-(1H-imidazol-2-yl)propyl]pyrimidin-2-amine], for which the Ki amounted to 1.28 ± 0.187 µM.

As for `c1cc(-c2ccoc2)nc(N2CC[N+]3(CCOCC3)CC2)n1` [Compound 47, 4-[4-(3-Furyl)pyrimidin-2-yl]piperazine-1-spiro-1-morpholinium iodide], the Ki was determined as 0.299 ± 0.042 µM.

Take `CN1CCN(c2nc(-c3ccoc3)c3ccccc3n2)CC1` [Compound 48, 4-(3-Furyl)-2-(methylpiperazin-1-yl)quinazoline]: the Ki worked out at 1.91 ± 0.235 µM.

Turning to `CN1CCN(c2nc(N3CCN(C)CC3)c3ccccc3n2)CC1` [Compound 49, 2,4-bis(4-Methylpiperazin-1-yl)quinazoline], the Ki came out at 7.54 ± 1.14 µM.

Take `CN(C)CCc1nc(N2CCN(C)CC2)nc2ccccc12` [Compound 50]: the Ki is > 10 µM.

Take `CN1CCN(c2cc(-c3ccoc3)ccn2)CC1` [Compound 51, 4-(3-Furyl)-2-(4-methylpiperazin-1-yl)pyridine]: the Ki was 0.017 ± 0.002 µM.

Take `CN1CCN(c2cc(-c3ccco3)ccn2)CC1` [Compound 52, 4-(2-Furyl)-2-(4-methylpiperazin-1-yl)pyridine]: the Ki came to 0.307 ± 0.042 µM.

`CN1CCN(c2cc(-c3cccs3)ccn2)CC1` [Compound 53, 2-(4-Methylpiperazin-1-yl)-4-(2-thienyl)pyridine]: the Ki stood at 0.396 ± 0.055 µM.

`Cc1cc(-c2ccoc2)cc(N2CCN(C)CC2)n1` [Compound 54, 4-(3-Furyl)-2-methyl-6-(4-methylpiperazin-1-yl)pyridine]: the Ki was found to be 0.008 ± 0.001 µM.

As for `Cc1cc(-c2ccco2)cc(N2CCN(C)CC2)n1` [Compound 55, 4-(2-Furyl)-2-methyl-6-(4-methylpiperazin-1-yl)pyridine], the Ki was found to be 0.139 ± 0.022 µM.

For the compound `Cc1cc(-c2cccs2)cc(N2CCN(C)CC2)n1` [Compound 56, 2-Methyl-6-(4-methylpiperazin-1-yl)-4-(2-thienyl)pyridine], the Ki stood at 0.117 ± 0.012 µM.

For `CN1CCN(c2cccc(-c3ccoc3)n2)CC1` [Compound 57, 6-(3-Furyl)-2-(4-methylpiperazin-1-yl)pyridine], the Ki is 0.008 µM and 0.011 µM.

Take `CN1CCN(c2cccc(-c3ccsc3)n2)CC1` [Compound 58, 2-(4-Methylpiperazin-1-yl)-6-(3-thienyl)pyridine]: the Ki was found to be 0.079 ± 0.014 µM.

For the compound `CN1CCN(c2cccc(-c3ccco3)n2)CC1` [Compound 59, 2-(2-Furyl)-6-(4-methylpiperazin-1-yl)pyridine], the Ki was determined as 1.14 ± 0.154 µM.

For `CN1CCN(c2cccc(-c3ccoc3)c2)CC1` [Compound 60, 1-[3-(3-Furyl)phenyl]-4-methylpiperazine], the Ki was 0.031 ± 0.004 µM.

Consider `Cc1cc(-c2ccoc2)cc(N2CCN(C)CC2)c1` [Compound 61, 1-[3-(3-Furyl)-5-methylphenyl]-4-methylpiperazine], for which the Ki amounted to 0.037 ± 0.003 µM.

`CCCCc1cc(-c2ccoc2)cc(N2CCN(C)CC2)c1` [Compound 62, 1-[3-n-Butyl-5-(3-furyl)phenyl]-4-methylpiperazine]: the Ki stood at 0.106 ± 0.009 µM.

With `CN1CCN(c2cccc(-c3ccco3)c2)CC1` [Compound 63, 1-[3-(2-Furyl)phenyl]-4-methylpiperazine], the Ki amounted to 0.914 ± 0.121 µM.

In the case of `Cc1cc(-c2ccco2)cc(N2CCN(C)CC2)c1` [Compound 64, 1-[3-(2-Furyl)-5-methylphenyl]-4-methylpiperazine], the Ki was 0.312 ± 0.025 µM.

In the case of `CCCCc1cc(-c2ccco2)cc(N2CCN(C)CC2)c1` [Compound 65, 1-[3-n-Butyl-5-(2-furyl)phenyl]-4-methylpiperazine], the Ki stood at 0.743 ± 0.066 µM.

As to `CN1CCN(c2cccc(-c3ccsc3)c2)CC1` [Compound 66, 1-Methyl-4-[3-(3-thienyl)phenyl]piperazine], the Ki is 0.342 ± 0.051 µM.

For the compound `Cc1cc(-c2ccsc2)cc(N2CCN(C)CC2)c1` [Compound 67, 1-Methyl-4-[3-methyl-5-(3-thienyl)phenyl]piperazine], the Ki stood at 0.047 ± 0.006 µM.

As to `CCCCc1cc(-c2ccsc2)cc(N2CCN(C)CC2)c1` [Compound 68, 1-[3-n-Butyl-5-(3-thienyl)phenyl]-4-methylpiperazine], the Ki stood at 0.263 ± 0.019 µM.

Consider `CN1CCN(c2cccc(-c3cccs3)c2)CC1` [Compound 69, 1-Methyl-4-[3-(2-thienyl)phenyl]piperazine], for which the Ki was 0.542 ± 0.066 µM.

Turning to `Cc1cc(-c2cccs2)cc(N2CCN(C)CC2)c1` [Compound 70, 1-Methyl-4-[3-methyl-5-(2-thienyl)phenyl]piperazine], the Ki came to 0.297 ± 0.042 µM.

For `CCCCc1cc(-c2cccs2)cc(N2CCN(C)CC2)c1` [Compound 71, 1-[3-n-Butyl-5-(2-thienyl)phenyl]-4-methylpiperazine], the Ki is 0.734 ± 0.059 µM.

These data come from PMC6272903, “Synthesis and Structure-Activity Relationship Analysis of 5-HT7 Receptor Antagonists: Piperazin-1-yl Substituted Unfused Heterobiaryls” (Molecules, 2016).
